Measurements from patent US20260216099A1, “BROMOQUINONE AS A TREATMENT FOR OBESITY AND CANCER” (priority 2023, published 2026).
“Also recorded” adds a separate entry of the source.

Assays:
[1] = test system: isolated beef liver mitochondria; assay: Energy coupling (oxidative phosphorylation) in isolated mitochondria treated with bromoquinone; type: biochemical; details: NADH linked substrate; 2 instead of 3
Method: Introducing an electron-withdrawing group such as bromine should have an effect on the redox potential and UV spectrum, and this is indeed the case. Bromoquinone has a higher redox potential than that of Coenzyme Q10, by about 30 mV and UV spectral shift by 24 nm. A decrease of approximately 30% of energy conservation efficiency has been observed in isolated mitochondria that were treated with bromoquinone. This decrease may be due to the loss of energy conservation site II at Complex III in the bromoquinone-treated mitochondria (2).
When the rats were given 0.3 mL of a high fat mixture daily in addition to normal diet, a significant increase in weight gain was observed. […] Using NADH linked substrate 6-Br-Q0C10 treated mitochondria has a P/O ratio of 2 instead of 3. 6-Br-Q0C10 causes a by-passing of oxidative phosphorylation site 2 because of its high redox-potential.

[2] = test system: rMC-1 cells; assay: Cell counting assay (Trypan Blue), cell growth; type: cell-based, Rat; details: 48 hours
Method: (§1) Cell Counting Assay: For the cell counting assay, rMc-1, ARPE-19, and HepG2 cells were cultured in DMEM with 4.5 g/L glucose supplemented with 10% fetal bovine serum (FBS), penicillin, and streptomycin. These cells were seeded at 50% confluency before bromoquinone treatment. About 5,000 cells were seeded in a 24-well plate and treated with various amounts of bromoquinone and incubated at 37° C. under 5% CO2. Cell growth was examined by cell counting stained with Trypan Blue. The Raw264.7 and L929 cells were cultured in DMEM supplemented with 10% (vol/vol) heat-inactivated FBS (SH30910.03; Hyclone) at 37° C. and 5% CO2. THP-1 cells were cultured in RPMI-1640 medium supplemented with 10% (v/v) heat-inactivated FBS at 37° C. and 5% CO2.
(§2) When the cell lines (rM-1, ARPE-19 and Hep G2) were cultured for 48 hours in their corresponding media in the presence of various concentrations (0, 0.5, 2.5. 5, and 10 μM) of bromoquinone, the cell survival rate decreased as the concentration of bromoquinone increased. When the concentration of bromoquinone was 10 μM, the cell survival rate decreased by 70-80%, while under the same conditions, no effect on cell growth was observed if normal coenzyme Q or Q0C10 was used.

[3] = test system: ARPE19 cells; assay: Cell counting assay (Trypan Blue), cell growth; type: cell-based, Human; details: 48 hours
Method: as §1, §2

[4] = test system: Hep G2 cells; assay: Cell counting assay (Trypan Blue), cell growth; type: cell-based, Human; details: for Effect of Bromoquinone on the Growth (cell survival, % of 0 μM): Hep G2 cells, 48 hours
Method: as §1, §2

[5] = test system: L-929, Raw 264-7 and THP-1 cells; assay: Cell growth, live cell number by Trypan Blue (FIG. 3A); type: cell-based, Mouse; Human
Method: as §1
Cell Attachment Assay: For the cell attachment assay, Raw264.7 and L929 cells were pre-seeded (100,000 cells/well) in 12-well plates (overnight incubation) at 37° C. and 5% CO2. Bromoquinone was added 24 hours after pre-seeding, and cell attachment was determined by counting attached cells at 72 hours post-treatment. […] Bromoquinone was added 24 hours after pre-seeding, and cell attachment was determined by counting attached cells at 72 hours post-treatment. […] The live cell number was determined by Trypan Blue staining. […]

[6] = test system: L-929, Raw 264-7 and THP-1 cells; assay: Cell attachment assay (FIG. 3B); type: cell-based, Mouse; Human; details: 72 hours post-treatment
Method: (§3) Cell Attachment Assay: For the cell attachment assay, Raw264.7 and L929 cells were pre-seeded (100,000 cells/well) in 12-well plates (overnight incubation) at 37° C. and 5% CO2. Bromoquinone was added 24 hours after pre-seeding, and cell attachment was determined by counting attached cells at 72 hours post-treatment. THP-1 cells were pre-seeded (100,000 cells/well) in the presence of 320 nM phorbol-12-myristate-13-acetate (PMA) in 12-well plates (overnight incubation) at 37° C. and 5% CO2. Bromoquinone was added 24 hours after pre-seeding, and cell attachment was determined by counting attached cells at 72 hours post-treatment. Raw264.7, L929, and THP-1 cells were cultured in 12-well plates (100,000 cells/well) in the presence of bromoquinone for 72 hours at 37° C. and 5% CO2. The live cell number was determined by Trypan Blue staining. HEK293 and HeLa cells were cultured in DMEM supplemented with 10% (v/v) fetal bovine serum and 1% (v/v) penicillin-streptomycin. INS-1 cells were cultured in RPMI 1640 media supplemented with 10% (v/v) FBS and 1% (v/v) penicillin-streptomycin. All the cells were incubated at 37° C. and 5% CO2 atmosphere in 10-cm plates. When the cells reached about-80% confluency, they were harvested and cultured on 96-well plates with 5×10^3 cells seeded per well. […]

[7] = test system: ADSC cells; assay: Cell growth by cell counting, Trypan Blue and hemocytometer (FIG. 4A); type: cell-based, Human
Method: (§4) FIGS. 4A, 4B, and 4C illustrate the effect of bromoquinone on cell growth of HEK293, HeLa, INS-1, and ADSC cells. […] Cells were stained with bisbenzimide.
(§5) Cell Attachment Assay: For the cell attachment assay, Raw264.7 and L929 cells were pre-seeded (100,000 cells/well) in 12-well plates (overnight incubation) at 37° C. and 5% CO2. Bromoquinone was added 24 hours after pre-seeding, and cell attachment was determined by counting attached cells at 72 hours post-treatment. THP-1 cells were pre-seeded (100,000 cells/well) in the presence of 320 nM phorbol-12-myristate-13-acetate (PMA) in 12-well plates (overnight incubation) at 37° C. and 5% CO2. Bromoquinone was added 24 hours after pre-seeding, and cell attachment was determined by counting attached cells at 72 hours post-treatment. Raw264.7, L929, and THP-1 cells were cultured in 12-well plates (100,000 cells/well) in the presence of bromoquinone for 72 hours at 37° C. and 5% CO2. The live cell number was determined by Trypan Blue staining. HEK293 and HeLa cells were cultured in DMEM supplemented with 10% (v/v) fetal bovine serum and 1% (v/v) penicillin-streptomycin. INS-1 cells were cultured in RPMI 1640 media supplemented with 10% (v/v) FBS and 1% (v/v) penicillin-streptomycin. All the cells were incubated at 37° C. and 5% CO2 atmosphere in 10-cm plates. When the cells reached about-80% confluency, they were harvested and cultured on 96-well plates with 5×10^3 cells seeded per well. For each cell line, three 96-well plates were prepared—one for MTT assay and two for bisbenzimide-based nuclear fluorescent stain assay. After 24-hour incubation, the culture medium was replaced by the same medium containing various concentrations (0, 4, 8, 16, 32, and 64 μM) of bromoquinone. Three replicates were made for each condition. The plates then continued to be incubated for another 24 hours (two plates) or 48 hours (one plate). One plate with 24-hour treatment was used for the MTT cell viability assay. The other 24-hour treatment plate and the 48-hour treatment plate were used for the Bisbenzimide-based nuclear fluorescent stain cell imaging.
(§6) As described above, cell lines were cultured in their corresponding media in the presence of various concentrations of bromoquinone (0, 2, 4, 8, 16, 32, and 64 μM) for 48 and 72 hours. […] Similar results were obtained using the MTT assay (FIG. 4B). As expected, when the incubation was prolonged to 72 hours, more inhibition was observed.

[8] = test system: HEK-293 cells; assay: as above; type: cell-based, Human
Method: as §4, §5, §6

[9] = test system: HeLa cells; assay: as above; type: cell-based, Human
Method: as §4, §5, §6

[10] = test system: INS-1 cell line; assay: Cell growth inhibition (FIG. 4); type: cell-based, Rat; details: INS-1, highest concentration tested
Method: as §4
as §3, with “plates.” for “plates. When the cells reached about-80% confluency, they were harvested and cultured on 96-well plates with 5×10^3 cells seeded per well.”

[11] = Rat growth study: body weight gain, toxicity, food and water consumption; type: in vivo
Method: 6-Br-Q0C10: Crude 6-Br-Q0C10 was available in the laboratory. It was further purified to homogeneity using thin layer chromatography. The purity of 6-Br-Q0C10 was confirmed by its absorption peak at 303 nm and the concentration was determined spectrophotometrically, using a millimolar extinction coefficient of 20 cm^−1 (13), Carboyxmethyl cellulose was obtained from Amazon. Olive oil and unsalted butter were obtained from the local supermarket. 9 Male F344 (born on Sep. 28, 2023) were purchased from Evigo RMS, Inc, 8520 Allison Pointe Blvd, Suite 4000, Indianapolis, Indiana 46250 on Oct. 17, 2023.
The rats were divided into three groups, three rats in each group. We followed their growth by body weight gained daily until Nov. 5, 2023, and then one group of rats received the 6-Br-Q0C10 treatment, and the second group received only the carrier media used to dissolve the 6-Br-Q0C10, and the third group was used as control without any treatment. All rats had free access to rat chow and water.
Various concentrations of 6-Br-Q0C10 were dissolved in 1% and 1.5% CMC, 40% ethanol, and a mixture of oil and unsalted butter (67:33). 6-Br-Q0C10 solutions and carriers were given to the rats by IG in a volume of 0.3 mL daily. The body weights of the rats were measured and recorded individually and as a group. JACUC Protocol No: SC2101

[12] = Redox potential; type: physicochemical; details: difference to Coenzyme Q10
[13] = test system: rM-1, ARPE-19 and Hep G2 cell lines; assay: Cell counting assay, statements for the three cell lines together; type: cell-based, Rat; Human; details: for effect on cell growth: same conditions as bromoquinone (up to 10 μM, 48 hours)
Method: as §1, §2

[14] = test system: commercially available cell lines; assay: Cell growth of commercially available cell lines (halogen-Q0C10); type: cell-based; details: many commercially available cell lines

Compound: CCCCCCCCCCC1=C(Br)C(=O)C(OC)=C(OC)C1=O [6-Br-Q0C10, 6-Bromo-2,3-dimethoxy-5-decyl-1,4-benzoquinone]
- P/O ratio [1]: 2
- Effect of Bromoquinone on the Growth (cell survival, % of 0 μM) ([2]; 0.5 μM bromoquinone): 88.2%
- Effect of Bromoquinone on the Growth (cell survival, % of 0 μM) ([2]; 1 μM bromoquinone): 80.1%
- Effect of Bromoquinone on the Growth (cell survival, % of 0 μM) ([2]; 2.5 μM bromoquinone): 68.1%
- Effect of Bromoquinone on the Growth (cell survival, % of 0 μM) ([2]; 5 μM bromoquinone): 36.2%
- Effect of Bromoquinone on the Growth (cell survival, % of 0 μM) ([2]; 10 μM bromoquinone): 27.9%
- Effect of Bromoquinone on the Growth (cell survival, % of 0 μM) ([3]; 0.5 μM bromoquinone): 85.4%
- Effect of Bromoquinone on the Growth (cell survival, % of 0 μM) ([3]; 1 μM bromoquinone): 80.9%
- Effect of Bromoquinone on the Growth (cell survival, % of 0 μM) ([3]; 2.5 μM bromoquinone): 60.0%
- Effect of Bromoquinone on the Growth (cell survival, % of 0 μM) ([3]; 5 μM bromoquinone): 41.9%
- Effect of Bromoquinone on the Growth (cell survival, % of 0 μM) ([3]; 10 μM bromoquinone): 26.6%
- Effect of Bromoquinone on the Growth (cell survival, % of 0 μM) ([4]; 0.5 μM bromoquinone): 103.1%
- Effect of Bromoquinone on the Growth (cell survival, % of 0 μM) ([4]; 1 μM bromoquinone): 107.8%
- Effect of Bromoquinone on the Growth (cell survival, % of 0 μM) ([4]; 2.5 μM bromoquinone): 104.2%
- Effect of Bromoquinone on the Growth (cell survival, % of 0 μM) ([4]; 5 μM bromoquinone): 98.1%
- Effect of Bromoquinone on the Growth (cell survival, % of 0 μM) ([4]; 10 μM bromoquinone): 93.3%
- effect on Hep-G2 (cell growth) ([4]; even at 10 μM): very small
- inhibition at 50 µM [5]: ≤ 50%
- inhibition at 50 µM [6]: 70%
- inhibition (cell growth, cell counting) ([7]; 48 hours of treatment, FIG. 4A): 82%
- inhibition (cell growth) ([7]; 72 hours): 90%
- inhibition (cell growth, cell counting) ([8]; HEK-293, 48 hours of treatment, FIG. 4A): 69%
- inhibition (cell growth) ([8]; HEK-293, 72 hours): 95%
- inhibition (cell growth, cell counting) ([9]; 48 hours of treatment, FIG. 4A): 66%
- inhibition (cell growth) ([9]; 72 hours): 97%
- inhibition (cell growth) [10]: less than 20%
- food and water consumption ([11]; 6-Br-Q0C10 treated rats): slight increase
- reduction in body weight gain ([11]; rats, 0.5 mg/IG in 0.3 mL oil/butter (67%/33%) daily, compared to carrier mixture only): 30-40%
- toxicity effect on rats ([11]; rats, even at the highest concentrations used): no toxicity effect
- effect on growth (body weight gain) ([11]; rats, low concentrations, growth period): little effect; also recorded: slight
- toxicity ([11]; rats, lower concentrations): no toxicity
- redox potential higher than that of Coenzyme Q10 [12]: about 30 mV
- decrease of cell survival rate ([13]; 10 μM, 48 hours): 70-80%

Compound: CCCCCCCCCCC1=C(Cl)C(=O)C(OC)=C(OC)C1=O [6-Cl-Q0C10, 6-Chloro-2,3-dimethoxy-5-decyl-1,4-benzoquinone]
- reducing cell growth [14]: effective in reducing cell growth

Compound: CCCCCCCCCCC1=C(C)C(=O)C(OC)=C(OC)C1=O [Q0C10, 2,3-dimethoxy-5-decyl-6-methyl-1,4-benzoquinone]
- effect on cell growth [13]: no effect

Compound: COC1=C(OC)C(=O)C(CC=C(C)CCC=C(C)CCC=C(C)CCC=C(C)CCC=C(C)CCC=C(C)CCC=C(C)CCC=C(C)CCC=C(C)CCC=C(C)C)=C(C)C1=O [coenzyme Q10, 2,3-dimethoxy-5-(isoprenyl)10-6-methyl-1,4-benzoquinone]
- effect on cell growth [13]: no effect
